# According to US9896456B2, “Pharmaceutical compound having inhibitory activity against cholesterol acyltransferase isozyme 2 (ACAT2)” (School Juridical Person Kitasato Institute, priority 2014, dated 2018):
# pIC50: −log10 of the molar value.
# Target: T1, ACAT2 (Mus musculus, UniProt O88908)
# T1 construct: The resulting sediment was collected as a murine hepatic microsome fraction; from tissue; host or cells: mouse liver (hepatic microsome fraction)
# T1 sequence (O88908 1-525): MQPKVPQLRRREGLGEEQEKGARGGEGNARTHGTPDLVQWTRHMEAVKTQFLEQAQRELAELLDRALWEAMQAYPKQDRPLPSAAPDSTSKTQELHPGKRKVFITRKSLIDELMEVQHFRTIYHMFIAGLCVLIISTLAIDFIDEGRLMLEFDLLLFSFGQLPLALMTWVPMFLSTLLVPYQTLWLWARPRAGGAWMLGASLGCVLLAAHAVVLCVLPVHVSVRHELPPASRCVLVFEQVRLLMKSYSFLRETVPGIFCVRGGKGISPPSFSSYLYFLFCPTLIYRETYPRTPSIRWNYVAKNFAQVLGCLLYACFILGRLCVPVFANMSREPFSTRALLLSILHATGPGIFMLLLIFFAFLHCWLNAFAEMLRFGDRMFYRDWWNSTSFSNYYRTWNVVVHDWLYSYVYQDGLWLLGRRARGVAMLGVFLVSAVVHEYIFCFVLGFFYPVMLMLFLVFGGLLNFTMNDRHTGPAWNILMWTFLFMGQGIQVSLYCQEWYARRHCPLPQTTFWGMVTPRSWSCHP
# Experiment: Test of inhibitory activity against ACAT2 (murine hepatic microsome, [1-14C]oleoyl coenzyme A)
# Format: biochemical
# Conditions: for pIC50: murine hepatic microsome fraction as enzyme source, 37° C., 5 minutes; for degree of inhibitory activity against ACAT2 (in words, compared with pyripyropene A): summary of Table 1
# Description: The compounds produced in accordance with the procedure described above were tested concerning the inhibitory activity against ACAT2 in the manner described below.
# The ACAT2 enzyme protein was extracted from the membrane fraction derived from the murine hepatic microsome. Mouse livers were homogenized in buffer A (50 mM Tris-HCl buffer (pH 7.8), 1 mM ethylenediaminetetraacetic acid, and 1 mM phenylmethanesulfonyl fluoride) using a Potter-type homogenizer (Tokyo-RIKO). The homogenate was centrifuged at 12,000×g, and the supernatant was subjected to ultracentrifugation at […]. The resulting sediment was collected as a murine hepatic microsome fraction, and this fraction was adjusted so as to have a protein concentration of 5 mg/ml using buffer A. Thus, an enzyme source of the ACAT2 enzyme protein was obtained.
# ACAT2 activity was measured in the manner described below. […] The reaction solution was incubated at 37° C. for 5 minutes. A reaction solution prepared with the addition of 10 μl of methanol in place of the sample was used as a control reaction solution.
# After the incubation, the reaction was terminated with the addition of 1.2 ml of a chloroform/methanol (1:2) solution to the reaction solution. […] The resulting chloroform layer was evaporated to dryness and spotted on a thin layer chromatography (TLC) plate (silica gel plate, 0.5 mm thickness, Merck). Separation was carried out with the use of a solvent comprising hexane/diethyl ether/acetic acid (70:30:1, v/v). Subsequently, [^14C] cholesteryl oleate separated on the TLC plate was quantified using FLA 7000 (Fuji Film). […] In quantification of the [^14C] cholesteryl oleate, the radioactivity of a TLC plate onto which no substance had been spotted was designated as the background level.
# The symbols used in the table are as defined below.
Structure (SMILES),pIC50,"degree of inhibitory activity against ACAT2 (in words, compared with pyripyropene A)"
"CC(=O)O[C@H]1C[C@@H](C(C)C)C[C@H]2C(O)c3c(cc(-c4ccccc4)oc3=O)O[C@]12C (stereo in doubt) [PT003, (5aS,6S,8S,9aS,10R)-10-hydroxy-8-isopropyl-5a-methyl-1-oxo-3-phenyl-1,5a,6,7,8,9,9a,10-octahydropyrano[4,3-b]chromen-6-yl acetate]",4.00 to 5.00,–
"CC(=O)O[C@H]1C[C@@H](C(C)C)C[C@H]2[C@@H](O)c3c(cc(-c4cccnc4)oc3=O)O[C@]12C [PT001, (5aS,6S,8S,9aS,10R)-10-hydroxy-8-isopropyl-5a-methyl-1-oxo-3-(pyridin-3-yl)-1,5a,6,7,8,9,9a,10-octahydropyrano[4,3-b]chromen-6-yl acetate]",4.00 to 5.00,–
"CC(=O)O[C@H]1C[C@@H](C(C)C)C[C@H]2[C@H](O)c3c(cc(-c4cccnc4)oc3=O)O[C@]12C [PT002, (5aS,6S,8S,9aS,10S)-10-hydroxy-8-isopropyl-5a-methyl-1-oxo-3-(pyridin-3-yl)-1,5a,6,7,8,9,9a,10-octahydropyrano[4,3-b]chromen-6-yl acetate]",4.00 to 5.00,–
"CC(=O)O[C@H]1C[C@@H](C(C)C)C[C@H]2[C@H](O)c3c(cc(-c4ccccc4)oc3=O)O[C@]12C [PT004, (5aS,6S,8S,9aS,10S)-0-hydroxy-8-isopropyl-5a-methyl-1-oxo-3-phenyl-1,5a,6,7,8,9,9a,10-octahydropyrano[4,3-b]chromen-6-yl acetate]",5.00 to 6.30,–
"CC(C)[C@@H]1C[C@H](OC(=O)c2ccc(C#N)cc2)[C@@]2(C)Oc3cc(-c4cccnc4)oc(=O)c3[C@H](O)[C@@H]2C1 [PT005, (5aS,6S,8S,9aS,10R)-10-hydroxy-8-isopropyl-5a-methyl-1-oxo-3-(pyridin-3-yl)-1,5a,6,7,8,9,9a,10-octahydropyrano[4,3-b]chromen-6-yl 4-cyanobenzoate]",> 6.30,substantially equivalent to that of pyripyropene A
"CC(C)[C@@H]1C[C@H](OC(=O)c2ccc(C#N)cc2)[C@@]2(C)Oc3cc(-c4cccnc4)oc(=O)c3[C@@H](O)[C@@H]2C1 [PT006, (5aS,6S,8S,9aS,10S)-10-hydroxy-8-isopropyl-5a-methyl-1-oxo-3-(pyridin-3-yl)-1,5a,6,7,8,9,9a,10-octahydropyrano[4,3-b]chromen-6-yl 4-cyanobenzoate]",> 6.30,substantially equivalent to that of pyripyropene A
"CC(C)[C@@H]1C[C@H](OC(=O)c2ccc(C#N)cc2)[C@@]2(C)Oc3cc(-c4ccccc4)oc(=O)c3[C@H](O)[C@@H]2C1 [PT007, (5aS,6S,8S,9aS,10R)-10-hydroxy-8-isopropyl-5a-methyl-1-oxo-3-phenyl-1,5a,6,7,8,9,9a,10-octahydropyrano[4,3-b]chromen-6-yl 4-cyanobenzoate]",5.00 to 6.30,–
"CC(=O)O[C@H]1C[C@@H](C(C)C)C(C)(C)[C@H]2[C@@H](O)c3c(cc(-c4cccnc4)oc3=O)O[C@]12C [PT008, (5aS,6S,8S,9aS,10R)-10-hydroxy-8-isopropyl-5a,9,9-trimethyl-1-oxo-3-(pyridin-3-yl)-1,5a,6,7,8,9,9a,10-octahydropyrano[4,3-b]chromen-6-yl acetate]",5.00 to 6.30,–
"CC(C)[C@@H]1C[C@H](OC(=O)c2ccc(C#N)cc2)[C@@]2(C)Oc3cc(-c4cccnc4)oc(=O)c3[C@H](O)[C@@H]2C1(C)C [PT009, (5aS,6S,8S,9aS,10R)-10-hydroxy-8-isopropyl-5a,9,9-trimethyl-1-oxo-3-(pyridin-3-yl)-1,5a,6,7,8,9,9a,10-octahydropyrano[4,3-b]chromen-6-yl 4-cyanobenzoate]",> 6.30,substantially equivalent to that of pyripyropene A
CC(=O)OCC(COC(C)=O)[C@@H]1C[C@H](OC(C)=O)[C@@]2(C)Oc3cc(-c4cccnc4)oc(=O)c3[C@H](O)[C@@H]2C1(C)C [PT010],4.00 to 5.00,–
"CC(=O)OCC(COC(C)=O)[C@@H]1C[C@H](OC(=O)c2ccc(C#N)cc2)[C@@]2(C)Oc3cc(-c4cccnc4)oc(=O)c3[C@H](O)[C@@H]2C1(C)C [PT022, 2-((5aS,6S,8S,9aS,10R)-6-((4-cyanobenzoyl)oxy)-10-hydroxy-5a,9,9-trimethyl-1-oxo-3-(pyridin-3-yl)-1,5a,6,7,8,9,9a,10-octahydropyrano[4,3-b]chromen-8-yl)propane-1,3-diyl diacetate]",> 6.30,–
